Here are results for 40 molecules from ChEMBL document CHEMBL1275352, “Selection of evodiamine as a novel topoisomerase I inhibitor by structure-based virtual screening and hit optimization of evodiamine derivatives as antitumor agents” (J Med Chem, 2010).

Type in all cases: functional, cell-based
In one test the test system is A549. The test can be described thus: Cytotoxicity against human A549 cells after 3 days by MTT assay. Conditions: for pIC50: Homo sapiens, A549, 72 h, read-out: IC50; for IC50: a549. A general note: Tetrazolium dyes change colour on reduction, which living cells bring about; call rule not given here.
A further test deals with MDA-MB-435. The test can be described thus: Cytotoxicity against human MDA-MB-435 cells after 3 days by MTT assay. The settings on record: for pIC50: Homo sapiens, MDA-MB-435, 72 h, read-out: IC50; for IC50: mda-mb-435.
The next test deals with HCT-116. Briefly: Cytotoxicity against human HCT116 cells after 3 days by MTT assay. The settings on record: HCT-116, 72 h.
The test system of another test is LoVo. Briefly: Cytotoxicity against human LoVo cells after 3 days by MTT assay. The settings on record: for IC50: lovo; for pIC50: Homo sapiens, LoVo, 72 h, read-out: IC50.

The structures appear in SMILES notation. pIC50: −log10 of the molar value.

In the case of `CN1c2ccccc2C(=O)N2CCc3c(n(C(=O)c4cccc(Cl)c4)c4ccccc34)C21` (stereo not given), the pIC50 (commonly the IC50 on a negative log10 scale, so that one unit is a factor of ten) is 5.54 in the test on A549, 7.29 in the test on MDA-MB-435 and 5.48 in the test with HCT-116.

On to `c1ccc2c(OCc3nc4c5c6c(sc5ncn4n3)CCCCC6)cccc2c1`, for which the IC50 result with A549, in the test on LoVo and in the test with MDA-MB-435 was “Not Active” in each case.

As to `Cc1cccc2c1nc1c3ccc4c5c(ccc(c(=O)n21)c53)C(=O)NC4=O`, the IC50 result in the test on A549, in the test on LoVo and in the test on MDA-MB-435 was “Not Active” each time.

Regarding `CN1c2ccccc2C(=O)N2CCc3c(n(C(=O)c4ccc([N+](=O)[O-])cc4)c4ccccc34)C21` (stereo not given), the pIC50 with A549 was 5.55; with MDA-MB-435 it was 6.26; in the test on HCT-116, 5.39.

`CN1c2ccccc2C(=O)N2CCc3c(n(C(=O)c4ccccc4)c4ccccc34)C21` (stereo not given): the values for the pIC50 with A549, in the test on LoVo and in the test on MDA-MB-435 were 5.00, 4.82 and 7.33, respectively.

For the molecule `CCCn1c2c(c3ccccc31)CCN1C(=O)c3ccccc3N(C)C21` (stereo not given), the IC50 result in the test with A549, in the test with LoVo and in the test on MDA-MB-435 was “Not Active” each time.

Consider `CN1c2ccccc2C(=O)N2CCc3c(n(Cc4cccc(Cl)c4)c4ccccc34)C21` (stereo not given), for which the IC50 result in the test on A549, in the test with LoVo and in the test on MDA-MB-435 was “Not Active” throughout.

With `CC[C@@]1(O)C(=O)OCc2c1cc1n(c2=O)Cc2cc3ccccc3nc2-1` [CAMPTOTHECIN], the pIC50 in the test with A549 was 7.24; in the test on LoVo, 5.51; in the test on MDA-MB-435, 6.15.

For `COc1ccc(Cn2c3c(c4ccccc42)CCN2C(=O)c4ccccc4N(C)C32)cc1` (stereo not given), the IC50 entry in the test on A549, in the test on LoVo and with MDA-MB-435 was “Not Active” throughout.

With `COc1ccc(C(=O)n2c3c(c4ccccc42)CCN2C(=O)c4ccccc4N(C)C32)cc1` (stereo not given), the pIC50 is 4.13 with A549 and 4.35 in the test with HCT-116. Also, the IC50 entry in the test on MDA-MB-435 is recorded as “Not Active”.

In the case of `CCn1c2c(c3ccccc31)CCN1C(=O)c3ccccc3N(C)C21` (stereo not given), the IC50 entry in the test on A549, with LoVo and in the test on MDA-MB-435 was “Not Active” each time.

As for `c1ccc(Cn2c(-c3ccccc3)c(-c3ccccc3)c3c2ncn2nc(-c4cccnc4)nc32)cc1`, the IC50 result with A549 and in the test with MDA-MB-435 was “Not Active” throughout. Further, the pIC50 with LoVo was 3.74.

On to `COCCOC(=O)c1sc2nc3c4ccccc4c(-c4ccc(C)c(C)c4)nn3c(=O)c2c1C`, for which the IC50 entry in the test with A549 and with MDA-MB-435 was “Not Active” each time. Besides, the pIC50 in the test with LoVo was 4.35.

As to `CN1c2ccccc2C(=O)N2CCc3c(n(CC#N)c4ccccc34)C21` (stereo not given), the pIC50 in the test on A549 is 3.66; with MDA-MB-435, 3.70. In the test with LoVo, the IC50 result is reported as “Not Active”.

In the case of `CCCCCN1C(=O)/C(=c2\sc3nc4ccccc4n3c2=O)c2ccccc21`, the IC50 result with A549, in the test with LoVo and with MDA-MB-435 was “Not Active” in each case.

As for `CC(C)n1c2c(c3ccccc31)CCN1C(=O)c3ccccc3N(C)C21` (stereo not given), the IC50 entry with A549, in the test with LoVo and in the test with MDA-MB-435 was “Not Active” each time.

Regarding `Cc1ccccc1C(=O)n1c2c(c3ccccc31)CCN1C(=O)c3ccccc3N(C)C21` (stereo not given), the pIC50 is 5.38 in the test with A549, 6.82 in the test on MDA-MB-435 and 5.41 in the test on HCT-116.

Turning to `CCOC(=O)Cn1c2c(c3ccccc31)CCN1C(=O)c3ccccc3N(C)C21` (stereo not given), the IC50 result in the test on A549 and in the test on LoVo was “Not Active” in each case. In the test on MDA-MB-435, the pIC50 was 3.82.

On to `COc1ccc(-c2nc3c4c(-c5ccccc5)c(-c5ccccc5)oc4ncn3n2)cc1OC`, for which the IC50 entry in the test on A549 and in the test on MDA-MB-435 was “Not Active” each time. Further, the pIC50 with LoVo was 4.12.

For `CN1c2ccccc2C(=O)N2CCc3c(n(C(=O)c4ccc(F)cc4)c4ccccc34)C21` (stereo not given), the values for the pIC50 in the test with A549, in the test with MDA-MB-435 and with HCT-116 were 5.37, 6.89 and 5.29, respectively.

For the molecule `CCOC(=O)n1c2c(c3ccccc31)CCN1C(=O)c3ccccc3N(C)C21` (stereo not given), the pIC50 in the test with A549 was 3.89; with LoVo, 4.02; with MDA-MB-435, 5.03.

As to `CN1c2ccccc2C(=O)N2CCc3c(n(CC(=O)O)c4ccccc34)C21` (stereo not given), the pIC50 in the test with A549 was 4.14; in the test with LoVo, 3.89; with MDA-MB-435, 4.89.

On to `CC1CCc2c(sc3nc4c5ccccc5c(-c5ccccc5)nn4c(=O)c23)C1` (stereo not given), for which the IC50 result with A549, in the test on LoVo and with MDA-MB-435 was “Not Active” in each case.

On to `CCc1c2c(nc3ccc(OC(=O)N4CCC(N5CCCCC5)CC4)cc13)-c1cc3c(c(=O)n1C2)COC(=O)[C@]3(O)CC` [IRINOTECAN], for which the pIC50 with A549 was 5.19; in the test on LoVo it was 5.06; in the test with MDA-MB-435, 4.77.

On to `CN1c2ccccc2C(=O)N2CCc3c(n(C(=O)c4ccccc4Cl)c4ccccc34)C21` (stereo not given), for which the pIC50 was 4.85 in the test on A549, 6.74 in the test with MDA-MB-435 and 5.33 with HCT-116.

For `COC(=O)c1cc(OCc2cccc(C(F)(F)F)c2)c2c(c1)Oc1nc3ccccc3nc1O2`, the IC50 result in the test with A549, in the test with LoVo and in the test with MDA-MB-435 was “Not Active” each time.

Turning to `O=c1c2ccccc2nc2c3ccccc3c(Sc3nnc4ccccn34)nn12`, the IC50 entry in the test with A549, with LoVo and with MDA-MB-435 was “Not Active” throughout.

On to `CN1c2ccccc2C(=O)N2CCc3c(n(C(=O)c4ccc(Cl)cc4Cl)c4ccccc34)C21` (stereo not given), for which the pIC50 was 5.28 in the test with A549, 6.41 in the test on MDA-MB-435 and 5.42 in the test with HCT-116.

Turning to `CN1c2ccccc2C(=O)N2CCc3c(n(Cc4ccccc4)c4ccccc34)C21` (stereo not given), the pIC50 is 4.26 in the test with A549, 4.17 in the test on LoVo and 3.96 with MDA-MB-435.

Consider `CN1c2ccccc2C(=O)N2CCc3c(n(Cc4ccccc4Cl)c4ccccc34)C21` (stereo not given), for which the negative logarithm of the IC50 (pIC50) in the test on A549 was 4.54; in the test with LoVo, 4.13; in the test on MDA-MB-435 it was 4.38.

Take `O=S(=O)(c1ccccc1)c1cc2c(O)c3c(ccc4cccnc43)c(O)c2c2ncccc12`: the pIC50 in the test with A549 was 3.92. Moreover, the IC50 result with LoVo and in the test on MDA-MB-435 was “Not Active” each time.

Take `CCOC(=O)C1=C(C)N=c2s/c(=C3\C(=O)N(CC)c4ccccc43)c(=O)n2C1c1ccccc1` (stereo not given): the IC50 result in the test on A549, in the test with LoVo and in the test with MDA-MB-435 was “Not Active” throughout.

Turning to `C=CCN1C(=O)/C(=C2\S/C(=N\c3ccccc3)N(c3ccccc3)C2=O)c2ccccc21`, the IC50 entry with A549, with LoVo and in the test with MDA-MB-435 was “Not Active” in each case.

For the molecule `CN1c2ccccc2C(=O)N2CCc3c(n(C(=O)c4ccccc4F)c4ccccc34)C21` (stereo not given), the figures for the pIC50 in the test with A549 and with HCT-116 were 4.46 and 4.05, respectively. Also, in the test on MDA-MB-435, the IC50 result is recorded as “Not Active”.

For `Cn1c(=O)n(C)c2cc3c(cc21)nc1c2cccc4c(Br)ccc(c(=O)n31)c42`, the IC50 result with A549, with LoVo and in the test with MDA-MB-435 was “Not Active” in each case.

Consider `Cc1ccc(C(=O)n2c3c(c4ccccc42)CCN2C(=O)c4ccccc4N(C)C32)cc1` (stereo not given), for which the pIC50 was 5.52 with A549, 7.42 in the test on MDA-MB-435 and 5.37 in the test on HCT-116.

As for `O=C(NCCO)c1ccc2nc3c4ccccc4c4ccccc4c3nc2c1`, the IC50 entry in the test on A549, in the test on LoVo and in the test on MDA-MB-435 was “Not Active” in each case.

`CCCCCCn1c2c(c3ccccc31)CCN1C(=O)c3ccccc3N(C)C21` (stereo not given): the negative logarithm of the IC50 (pIC50) with A549 was 3.92; in the test on LoVo it was 4.23; with MDA-MB-435 it was 3.96.

As for `CCOC(=O)C1=C(C)N=c2s/c(=C3\C(=O)N(CC)c4ccccc43)c(=O)n2C1/C=C/c1ccccc1` (stereo not given), the IC50 entry in the test on A549, in the test with LoVo and with MDA-MB-435 was “Not Active” in each case.

As for `CN1c2ccccc2C(=O)N2CCc3c(n(Cc4ccc(Cl)cc4Cl)c4ccccc34)C21` (stereo not given), the IC50 result with A549, with LoVo and with MDA-MB-435 was “Not Active” each time.
